In ChEMBL document CHEMBL5137133, “Effects of the Anthocyanin Hirsutidin on Gastric Ulcers: Improved Healing through Antioxidant Mechanisms” (J Nat Prod, 2022) one finds Activity and pH data, which are given here for 1 molecule.

Molecules are shown by their SMILES. Calls of active or inactive are those of the source. The rule behind the calls is not given here.

In data set [1] the test system is Rattus norvegicus. As to the kind of experiment: Anti-ulcer activity in Wistar rat model of ethanol-induced gastric ulcer assessed as protection against gastric tissue damages at 10 to 20 mg/kg, po administered once daily for 7 days followed by ethanol injection after 1 hr post last dose and measured after 4 hrs by ELISA. To be noted: dose 10-20 mg/kg, time 173.0 hrs. The data set is classed as functional, organism-based. (In general: An ELISA detects its analyte on a solid surface through an enzyme-linked reagent.)

Data set [2] has as its system Rattus norvegicus. Nature of the data set: Anti-ulcer activity in Wistar rat model of ethanol-induced gastric ulcer assessed as increase in PGE2 levels at 10 to 20 mg/kg, po administered once daily for 7 days followed by ethanol injection after 1 hr post last dose and measured after 4 hrs by ELISA. The data set is classed as functional, organism-based. Conditions: dose 10-20 mg/kg, time 173.0 hrs.

Data set [3] deals with Rattus norvegicus. As to the kind of experiment: Anti-ulcer activity in Wistar rat model of ethanol-induced gastric ulcer assessed as attenuation of ALP level at 10 to 20 mg/kg, po administered once daily for 7 days followed by ethanol injection after 1 hr post last dose and measured after 4 hrs by ELISA. The data set is classed as functional. Conditions: dose 10-20 mg/kg, time 173 hrs.

Data set [4] has as its system Rattus norvegicus. Nature of the data set: Anti-ulcer activity in Wistar rat model of ethanol-induced gastric ulcer assessed as attenuation of AST level at 10 to 20 mg/kg, po administered once daily for 7 days followed by ethanol injection after 1 hr post last dose and measured after 4 hrs by ELISA. To be noted: dose 10-20 mg/kg, time 173 hrs. The data set is classed as functional.

Data set [5] is described as follows: Acute toxicity in po dosed mouse assessed as morbidity. The data set is classed as organism-based. To be noted: in vivo.
The subject of data set [6] is Rattus norvegicus. Nature of the data set: Anti-ulcer activity in Wistar rat model of ethanol-induced gastric ulcer assessed as increase in gastric pH at 20 mg/kg, po administered once daily for 7 days followed by ethanol injection after 1 hr post last dose. The data set is classed as functional. Conditions: time 173 hrs.
The test system of data set [7] is Rattus norvegicus. Nature of the data set: Anti-ulcer activity in Wistar rat model of ethanol-induced gastric ulcer assessed as increase in gastric pH at 10 mg/kg, po administered once daily for 7 days followed by ethanol injection after 1 hr post last dose and measured after 4 hrs. To be noted: time 173 hrs. The data set is classed as functional.
A short description of data set [8]: Acute toxicity in po dosed mouse assessed as mortality. The data set is classed as organism-based. To be noted: in vivo.
Data set [9] concerns Rattus norvegicus. Nature of the data set: Anti-ulcer activity in Wistar rat model of ethanol-induced gastric ulcer assessed as reduction in MDA levels at 10 to 20 mg/kg, po administered once daily for 7 days followed by ethanol injection after 1 hr post last dose and measured after 4 hrs by Wills method. To be noted: dose 10-20 mg/kg, time 173 hrs. The data set is classed as functional. Also on record: scale not given: the % may be the effect or the level left.

The test system of data set [10] is Rattus norvegicus. Nature of the data set: Anti-ulcer activity in Wistar rat model of ethanol-induced gastric ulcer assessed as reduction in MPO levels at 10 to 20 mg/kg, po administered once daily for 7 days followed by ethanol injection after 1 hr post last dose and measured after 4 hrs. To be noted: dose 10-20 mg/kg, time 173.0 hrs. The data set is classed as functional, organism-based.

Data set [11] has as its system Rattus norvegicus. As to the kind of experiment: Anti-ulcer activity in Wistar rat model of ethanol-induced gastric ulcer assessed as reduction in serum IL-6 level at 10 to 20 mg/kg, po administered once daily for 7 days followed by ethanol injection after 1 hr post last dose and measured after 4 hrs by ELISA. The data set is classed as functional, organism-based. Conditions: dose 10-20 mg/kg, time 173.0 hrs.

The subject of data set [12] is Rattus norvegicus. Nature of the data set: Anti-ulcer activity in Wistar rat model of ethanol-induced gastric ulcer assessed as reduction in serum IL-1beta level at 10 to 20 mg/kg, po administered once daily for 7 days followed by ethanol injection after 1 hr post last dose and measured after 4 hrs by ELISA. The data set is classed as functional, organism-based. Conditions: dose 10-20 mg/kg, time 173.0 hrs.

In data set [13] the test system is Rattus norvegicus. As to the kind of experiment: Anti-ulcer activity in Wistar rat model of ethanol-induced gastric ulcer assessed as attenuation of TNFalpha level at 10 to 20 mg/kg, po administered once daily for 7 days followed by ethanol injection after 1 hr post last dose and measured after 4 hrs by ELISA. The data set is classed as functional. To be noted: dose 10-20 mg/kg, time 173 hrs.

For data set [14], the system named is Rattus norvegicus. As to the kind of experiment: Anti-ulcer activity in Wistar rat model of ethanol-induced gastric ulcer assessed as protection of NO depletion at 10 to 20 mg/kg, po administered once daily for 7 days followed by ethanol injection after 1 hr post last dose and measured after 4 hrs by ELISA. The data set is classed as functional. Conditions: dose 10-20 mg/kg, time 173 hrs.

Data set [15] relates to Rattus norvegicus. As to the kind of experiment: Anti-ulcer activity in Wistar rat model of ethanol-induced gastric ulcer assessed as restoration of endogenous GSH levels at 10 to 20 mg/kg, po administered once daily for 7 days followed by ethanol injection after 1 hr post last dose and measured after 4 hrs by Ellman's method. Conditions: dose 10-20 mg/kg, time 173.0 hrs. The data set is classed as functional, organism-based. In general terms: DTNB colorimetry detects thiols as they appear.

For data set [16], the system named is Rattus norvegicus. Nature of the data set: Anti-ulcer activity in Wistar rat model of ethanol-induced gastric ulcer assessed as restoration of endogenous CAT levels at 10 to 20 mg/kg, po administered once daily for 7 days followed by ethanol injection after 1 hr post last dose and measured after 4 hrs by H2O2 decomposition assay. To be noted: dose 10-20 mg/kg, time 173.0 hrs. The data set is classed as functional, organism-based.

In data set [17] the test system is Rattus norvegicus. As to the kind of experiment: Anti-ulcer activity in Wistar rat model of ethanol-induced gastric ulcer assessed as restoration of endogenous SOD levels at 10 to 20 mg/kg, po administered once daily for 7 days followed by ethanol injection after 1 hr post last dose and measured after 4 hrs. The data set is classed as functional, organism-based. Conditions: dose 10-20 mg/kg, time 173.0 hrs.

Data set [18] deals with Rattus norvegicus. As to the kind of experiment: Anti-ulcer activity in Wistar rat model of ethanol-induced gastric ulcer assessed as attenuation of ALT level at 10 to 20 mg/kg, po administered once daily for 7 days followed by ethanol injection after 1 hr post last dose and measured after 4 hrs by ELISA. The data set is classed as functional. To be noted: dose 10-20 mg/kg, time 173 hrs.

Data set [19] has as its system Rattus norvegicus. As to the kind of experiment: Anti-ulcer activity in Wistar rat model of ethanol-induced gastric ulcer assessed as reduction in ulcer score index at 10 to 20 mg/kg, po administered once daily for 7 days followed by ethanol injection after 1 hr post last dose and measured after 4 hrs. Conditions: dose 10-20 mg/kg, time 173.0 hrs. The data set is classed as functional, organism-based.

Data set [20] has as its system Rattus norvegicus. Nature of the data set: Anti-ulcer activity in Wistar rat model of ethanol-induced gastric ulcer assessed as reduction in total acidity levels at 10 to 20 mg/kg, po administered once daily for 7 days followed by ethanol injection after 1 hr post last dose and measured after 4 hrs. Conditions: dose 10-20 mg/kg, time 173 hrs. More on the design: scale not given: the % may be the effect or the level left. The data set is classed as functional.

Regarding `COc1cc(O)c2cc(O)c(-c3cc(OC)c(O)c(OC)c3)[o+]c2c1`, the result with Rattus norvegicus [1], in the data set on Rattus norvegicus [2], with Rattus norvegicus [10], in the data set on Rattus norvegicus [11], with Rattus norvegicus [12] and in the data set with Rattus norvegicus [15] was Active. For the same molecule, the outcome in the data set on Rattus norvegicus [16], with Rattus norvegicus [17] and in the data set on Rattus norvegicus [19] was Active. Also, the Activity in the data set on Rattus norvegicus [3] is 47.68%; in the data set with Rattus norvegicus [4], 35.3%; in data set [5] it was “Non-Toxic”; in [8], “Non-Toxic”; in the data set with Rattus norvegicus [9], 49.25%; in the data set with Rattus norvegicus [13] it was 27.59%. In addition, the results for the Activity with Rattus norvegicus [14], in the data set with Rattus norvegicus [18] and in the data set on Rattus norvegicus [20] were 85.1%, 38.85% and 37.76%, respectively. In addition, the figures for the pH in the data set with Rattus norvegicus [6] and in the data set with Rattus norvegicus [7] were 6.36 and 7.17, respectively.
